This is an account of results in ChEMBL document CHEMBL1140402, “SAR, species specificity, and cellular activity of cyclopentene dicarboxylic acid amides as DHODH inhibitors” (Bioorg Med Chem Lett, 2005).

Experiment [1] addresses Dihydroorotate dehydrogenase (quinone), mitochondrial (Homo sapiens, UniProt Q02127). The experiment can be described thus: Inhibition of N-terminally truncated recombinant human dihydroorotate dehydrogenase using in vitro enzyme assay.
Experiment [2] addresses Dihydroorotate dehydrogenase (quinone), mitochondrial (Rattus norvegicus, UniProt Q63707). Description: Inhibitory activity against rat dihydroorotate dehydrogenase.
Experiment [3] in a line: Inhibitory activity (proliferation) against human peripheral blood mononuclear cells stimulated with Phytohemagglutininin-L. Type of experiment: functional.
Experiment [4] addresses Dihydroorotate dehydrogenase (quinone), mitochondrial (Mus musculus, UniProt O35435). Description: Inhibitory activity against mouse dihydroorotate dehydrogenase.
Experiment [5] can be described thus: Inhibitory activity (proliferation) against human peripheral blood mononuclear cells stimulated with Phytohemagglutininin-L (value range: 0.175-0.327). Type of experiment: functional.

Sequence of Dihydroorotate dehydrogenase (quinone), mitochondrial (Homo sapiens, UniProt Q02127) (Q02127 whole entry, the tested form may be a part): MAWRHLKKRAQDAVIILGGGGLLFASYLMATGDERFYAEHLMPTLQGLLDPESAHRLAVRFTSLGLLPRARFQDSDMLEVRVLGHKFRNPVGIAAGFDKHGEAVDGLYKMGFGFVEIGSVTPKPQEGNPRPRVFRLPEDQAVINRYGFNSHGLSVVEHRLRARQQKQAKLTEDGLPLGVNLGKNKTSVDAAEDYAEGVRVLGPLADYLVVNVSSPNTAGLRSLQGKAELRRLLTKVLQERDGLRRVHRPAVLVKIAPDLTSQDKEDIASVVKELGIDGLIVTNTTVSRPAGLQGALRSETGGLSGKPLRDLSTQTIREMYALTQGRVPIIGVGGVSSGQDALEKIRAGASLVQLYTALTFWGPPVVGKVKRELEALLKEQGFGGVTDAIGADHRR
Sequence of Dihydroorotate dehydrogenase (quinone), mitochondrial (Mus musculus, UniProt O35435) (O35435 whole entry): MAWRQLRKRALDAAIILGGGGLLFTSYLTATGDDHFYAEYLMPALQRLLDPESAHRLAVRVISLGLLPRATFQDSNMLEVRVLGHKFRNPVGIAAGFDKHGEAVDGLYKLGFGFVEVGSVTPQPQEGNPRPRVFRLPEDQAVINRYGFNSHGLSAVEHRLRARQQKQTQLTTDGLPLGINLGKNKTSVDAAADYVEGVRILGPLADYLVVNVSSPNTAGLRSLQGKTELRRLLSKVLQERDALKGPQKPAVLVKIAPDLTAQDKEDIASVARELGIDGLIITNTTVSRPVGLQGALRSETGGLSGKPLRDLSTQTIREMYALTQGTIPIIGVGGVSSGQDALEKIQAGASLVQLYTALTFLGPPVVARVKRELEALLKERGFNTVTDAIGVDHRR
Sequence of Dihydroorotate dehydrogenase (quinone), mitochondrial (Rattus norvegicus, UniProt Q63707) (Q63707 whole entry): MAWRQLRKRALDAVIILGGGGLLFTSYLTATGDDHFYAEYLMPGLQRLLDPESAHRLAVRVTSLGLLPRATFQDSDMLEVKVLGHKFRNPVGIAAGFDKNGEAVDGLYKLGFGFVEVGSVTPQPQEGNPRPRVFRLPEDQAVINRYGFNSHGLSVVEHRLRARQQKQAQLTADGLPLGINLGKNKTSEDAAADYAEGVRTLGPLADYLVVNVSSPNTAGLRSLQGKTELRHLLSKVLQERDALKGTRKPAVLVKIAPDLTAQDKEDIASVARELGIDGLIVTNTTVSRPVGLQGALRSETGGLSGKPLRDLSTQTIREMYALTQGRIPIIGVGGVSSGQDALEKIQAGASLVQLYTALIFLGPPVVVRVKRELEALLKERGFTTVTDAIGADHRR

As to `O=C(O)C1=C(C(=O)Nc2c(F)cc(-c3cccc(OC(F)(F)F)c3)cc2F)COC1`, the half-inhibitory concentration (IC50) in experiment [1] amounted to 205 nM.
Still for that read-out and setting: the result for `COc1cccc(-c2ccc(NC(=O)C3=C(C(=O)O)CCC3O)c(F)c2)c1` (configuration not stated) reads 1460 nM; that for `O=C(O)C1=C(C(=O)Nc2c(F)c(F)c(-c3cccc(OC(F)(F)F)c3)c(F)c2F)COC1`, 58 nM.
Take `O=C(O)C1=C(C(=O)Nc2ccc(-c3ccccc3)cc2)CCC1`: the half-inhibitory concentration (IC50) in experiment [2] amounted to 1500 nM.
Turning to `C/C(O)=C(\C#N)C(=O)Nc1ccc(C(F)(F)F)cc1` [TERIFLUNOMIDE], the IC50 in experiment [3] was found to be 108000 nM.
As to `O=C(O)C1=C(C(=O)Nc2ccc(OCc3c(F)cccc3Cl)c(Cl)c2)CCC1`, the IC50 in experiment [1] is 11 nM.
For `O=C(O)C1=C(C(=O)Nc2ccc(OCc3ccccc3)cc2)CCC1`, the IC50 in experiment [1] worked out at 2000 nM.
`O=C(O)C1=C(C(=O)Nc2ccc(OCc3c(F)cccc3Cl)c(Cl)c2)COC1`: the half-inhibitory concentration (IC50) in experiment [4] came to 1800 nM; in experiment [1], 41 nM; in experiment [3], 1000 nM; in experiment [2] it was 1200 nM.
Take `O=C(O)C1=C(C(=O)Nc2cc(Br)c(OCc3ccccc3)c(Br)c2)CCC1`: the 50% inhibitory concentration (IC50) in experiment [1] came out at 127 nM.
Regarding `COc1cccc(-c2ccc(NC(=O)C3=C(C(=O)O)COC3)c(F)c2)c1`, the IC50 in experiment [1] is 360 nM.
With `O=C(O)C1=C(C(=O)Nc2ccc(-c3ccccc3)cc2)CSC1`, the half-inhibitory concentration (IC50) in experiment [1] is 667 nM.
For `O=C(O)C1=C(C(=O)Nc2c(F)cc(-c3cccc(OC(F)(F)F)c3)cc2F)CSC1`, the IC50 in experiment [1] was 15 nM.
In the case of `O=C(O)C1=C(C(=O)Nc2c(F)cc(-c3cccc(OC(F)(F)F)c3)cc2F)CCC1`, the 50% inhibitory concentration (IC50) in experiment [4] stood at 2000 nM; in experiment [3], 15000 nM; in experiment [2] it was 504 nM.
For the compound `O=C(O)C1=C(C(=O)Nc2ccc(-c3ccccc3)cc2)CS(=O)(=O)C1`, in experiment [1], the IC50 was found to be 3800 nM.
In the case of `COc1cccc(-c2ccc(NC(=O)C3=C(C(=O)O)C(O)CC3)c(F)c2)c1` (configuration not stated), the half-inhibitory concentration (IC50) in experiment [1] turned out to be 680 nM.
Turning to `O=C(O)C1=C(C(=O)Nc2c(F)c(F)c(-c3cccc(OC(F)(F)F)c3)c(F)c2F)CSC1`, the IC50 in experiment [1] is 4 nM.
As to `COc1cccc(-c2ccc(NC(=O)C3=C(C(=O)O)CSC3)c(F)c2)c1`, the IC50 in experiment [1] is 131 nM.
Turning to `O=C(O)C1=C(C(=O)Nc2c(F)c(F)c(-c3cccc(OC(F)(F)F)c3)c(F)c2F)CCC1`, the IC50 in experiment [4] turned out to be 422 nM; in experiment [5] it was 327 nM; in experiment [2] it was 78 nM.
For the compound `COc1cccc(-c2ccc(NC(=O)C3=C(C(=O)O)CCC3)c(F)c2)c1` [VIDOFLUDIMUS], the IC50 in experiment [3] stood at 13000 nM.
Consider `O=C(O)C1=C(C(=O)Nc2cc(Br)c(OCc3ccccc3)c(Br)c2)CSC1`, for which the IC50 in experiment [1] was determined as 173 nM.
